Laboratory results: patent publication US20240277902A1, “METHOD FOR MANUFACTURING PERIPHERAL NERVE-MIMICKING MICROTISSUE AND USES THEREOF” (INNOSTEM BIO, priority 2021, published 2024)

Tested on: constituent cells in the peripheral nerve-mimicking microtissue
Test: Cytoprotection by NAC and DEX in suspension culture (LIVE/DEAD, immunofluorescence)
Type: cell-based
Details: 1 mM NAC, 3 days
Source text: As a result of limitation in oxygen and nutrient exchange during the production process of peripheral nerve-mimicking microtissues, ROS accumulates in tissues, leading to cell damage and death. The Example is intended to present a cytoprotection method by dexamethasone (DEX) and N-acetylcysteine (NAC) to inhibit cell damage and death. PNSCs collected from the monolayer culture environment are suspended in a suspension culture medium at a density of 1.0E+06/mL. […] 1.0×10^5 cells per cm^2 area of a culture vessel is seeded in the ULA T75 flask (SPL Life Sciences) culture vessel. 1 mM NAC, 1 μM DEX, NAC and DEX were added simultaneously in 15 mL of suspension culture medium and cultured for 3 days. Cell death was assessed by LIVE/DEAD staining, and, for cell death, the survival rate was evaluated by calculating the total number of cells stained with DAPI and counting the number of cells that are positive for ethidium homodimer-1 (EthD-1). Moreover, the expression of p38 MAPK and cleaved caspase, which are factors that regulate cell death, and the degree of expression of p-Akt, an anti-cell death regulating factor, were evaluated through immunofluorescence staining.

Structure (SMILES): CC(=O)N[C@@H](CS)C(=O)O [NAC, N-acetylcysteine]
- cytoprotective effect on constituent cells in the microtissue (survival rate, LIVE/DEAD, EthD-1) (1 μM DEX, or both in suspension culture medium): protective effect
- expression of Hif, p38 MAPK, and cleaved caspase (cell death proteins) (1 μM DEX, or both, immunofluorescence staining): significantly inhibit
